In ChEMBL document CHEMBL4043168, “The design and SAR of a novel series of 2-aminopyridine based LRRK2 inhibitors” (Bioorg Med Chem Lett, 2017):

How the values were obtained:
[1] = target: Tyrosine-protein kinase ABL2 (Homo sapiens) (UniProt P42684); assay: Inhibition of ARG labeling at […] (LMTGDTYTAHAGAKFPIK) in human PBMC at 1 uM
[2] = target: Calcium/calmodulin-dependent protein kinase type II subunit delta (Homo sapiens) (UniProt Q13557); assay: Inhibition of CaMK2d labeling at conserved Lys2 (DLKPENLLLASK) in human PBMC at 1 uM
[3] = target: Receptor-interacting serine/threonine-protein kinase 3 (Homo sapiens) (UniProt Q9Y572); assay: Inhibition of RIPK3 conserved Lys2 (DLKPSNVLLDPELHVK) in human PBMC at 1 uM
[4] = target: T1, Serine/threonine-protein kinase ULK3 (Homo sapiens) (UniProt Q6PHR2); assay: Inhibition of ULK3 conserved Lys1 (EVVAIKCVAK) in human PBMC at 1 uM; details: pooled result: one value given for 4 cell lines, strains, targets or settings
T1 sequence (whole entry): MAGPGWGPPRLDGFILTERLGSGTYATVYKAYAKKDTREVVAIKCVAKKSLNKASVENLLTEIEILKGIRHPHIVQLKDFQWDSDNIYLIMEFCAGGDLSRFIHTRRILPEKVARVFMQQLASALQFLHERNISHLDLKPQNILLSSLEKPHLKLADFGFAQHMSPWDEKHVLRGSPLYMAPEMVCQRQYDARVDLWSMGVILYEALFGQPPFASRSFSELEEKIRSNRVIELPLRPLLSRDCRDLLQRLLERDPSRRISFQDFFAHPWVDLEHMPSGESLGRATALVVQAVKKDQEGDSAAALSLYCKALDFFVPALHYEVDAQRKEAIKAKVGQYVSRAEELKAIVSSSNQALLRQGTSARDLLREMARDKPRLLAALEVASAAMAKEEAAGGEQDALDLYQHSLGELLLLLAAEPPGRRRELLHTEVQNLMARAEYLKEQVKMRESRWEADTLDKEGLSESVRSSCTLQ

[5] = target: T2, Inhibitor of nuclear factor kappa-B kinase subunit epsilon (Homo sapiens) (UniProt Q14164); assay: Inhibition of IKKe conserved Lys1 (SGELVAVKVFNTTSYLRPR) in human PBMC at 0.1 uM
T2 sequence (whole entry): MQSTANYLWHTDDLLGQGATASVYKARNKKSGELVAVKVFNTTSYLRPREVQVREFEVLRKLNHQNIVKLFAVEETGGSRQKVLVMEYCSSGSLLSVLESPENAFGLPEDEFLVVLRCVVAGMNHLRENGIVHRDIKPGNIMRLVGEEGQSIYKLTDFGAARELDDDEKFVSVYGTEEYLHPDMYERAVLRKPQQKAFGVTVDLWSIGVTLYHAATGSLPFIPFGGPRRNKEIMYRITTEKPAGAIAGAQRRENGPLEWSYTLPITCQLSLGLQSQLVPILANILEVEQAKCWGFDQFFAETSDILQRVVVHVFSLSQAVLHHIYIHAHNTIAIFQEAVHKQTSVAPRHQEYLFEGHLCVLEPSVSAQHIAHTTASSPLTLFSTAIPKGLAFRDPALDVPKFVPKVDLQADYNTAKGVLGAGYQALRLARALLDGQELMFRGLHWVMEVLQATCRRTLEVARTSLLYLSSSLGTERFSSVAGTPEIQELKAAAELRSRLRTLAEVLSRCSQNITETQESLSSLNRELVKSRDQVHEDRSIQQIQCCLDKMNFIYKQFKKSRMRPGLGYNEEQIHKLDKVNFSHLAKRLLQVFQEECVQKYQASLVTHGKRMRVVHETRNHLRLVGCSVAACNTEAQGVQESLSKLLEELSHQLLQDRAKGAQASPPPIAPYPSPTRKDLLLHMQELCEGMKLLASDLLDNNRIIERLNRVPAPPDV

[6] = target: T3, Serine/threonine-protein kinase 3 (Homo sapiens) (UniProt Q13188); assay: Inhibition of MST2 conserved Lys2 (DIKAGNILLNTEGHAK) in human PBMC at 0.1 uM
T3 sequence (whole entry): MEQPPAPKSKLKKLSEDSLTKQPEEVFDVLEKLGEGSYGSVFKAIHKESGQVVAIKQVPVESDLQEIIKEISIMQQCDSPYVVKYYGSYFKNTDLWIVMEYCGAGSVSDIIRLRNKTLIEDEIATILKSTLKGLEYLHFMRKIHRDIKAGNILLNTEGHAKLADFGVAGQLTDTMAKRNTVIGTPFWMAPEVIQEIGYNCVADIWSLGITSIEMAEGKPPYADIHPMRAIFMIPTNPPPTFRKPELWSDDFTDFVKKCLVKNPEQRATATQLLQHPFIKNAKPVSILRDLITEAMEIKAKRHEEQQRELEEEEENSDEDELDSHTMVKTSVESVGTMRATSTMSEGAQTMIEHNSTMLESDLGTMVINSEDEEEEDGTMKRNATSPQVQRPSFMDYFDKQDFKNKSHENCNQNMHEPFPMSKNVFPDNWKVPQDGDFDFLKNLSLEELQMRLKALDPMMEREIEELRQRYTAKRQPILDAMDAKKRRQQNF

[7] = target: Myosin light chain kinase, smooth muscle (Homo sapiens) (UniProt Q15746); assay: Inhibition of smMLCK conserved Lys1 (VWAGKFFK) in human PBMC at 0.1 uM
[8] = target: Cyclin-dependent kinase 17 (Homo sapiens) (UniProt Q00537); assay: Inhibition of PCTAIRE2 conserved Lys2 (DLKPQNLLINEK) in human PBMC at 1 uM
Cyclin-dependent kinase 17 (Homo sapiens), sequence (Q00537 whole entry, looked up): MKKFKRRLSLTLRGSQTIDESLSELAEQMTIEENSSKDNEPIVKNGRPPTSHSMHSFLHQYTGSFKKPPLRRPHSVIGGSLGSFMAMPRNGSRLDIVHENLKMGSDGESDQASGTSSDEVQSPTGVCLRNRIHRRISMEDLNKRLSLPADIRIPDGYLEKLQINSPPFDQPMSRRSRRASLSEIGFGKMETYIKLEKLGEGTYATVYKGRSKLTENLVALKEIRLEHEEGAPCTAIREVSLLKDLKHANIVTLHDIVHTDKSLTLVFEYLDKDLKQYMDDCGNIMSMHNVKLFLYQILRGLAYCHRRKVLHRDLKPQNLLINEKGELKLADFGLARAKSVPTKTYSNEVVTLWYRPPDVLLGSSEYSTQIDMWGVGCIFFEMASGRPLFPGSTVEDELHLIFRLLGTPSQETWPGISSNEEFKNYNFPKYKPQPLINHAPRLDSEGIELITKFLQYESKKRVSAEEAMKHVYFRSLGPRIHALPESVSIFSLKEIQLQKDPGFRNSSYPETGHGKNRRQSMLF

Tyrosine-protein kinase ABL2 (Homo sapiens), sequence (P42684 whole entry): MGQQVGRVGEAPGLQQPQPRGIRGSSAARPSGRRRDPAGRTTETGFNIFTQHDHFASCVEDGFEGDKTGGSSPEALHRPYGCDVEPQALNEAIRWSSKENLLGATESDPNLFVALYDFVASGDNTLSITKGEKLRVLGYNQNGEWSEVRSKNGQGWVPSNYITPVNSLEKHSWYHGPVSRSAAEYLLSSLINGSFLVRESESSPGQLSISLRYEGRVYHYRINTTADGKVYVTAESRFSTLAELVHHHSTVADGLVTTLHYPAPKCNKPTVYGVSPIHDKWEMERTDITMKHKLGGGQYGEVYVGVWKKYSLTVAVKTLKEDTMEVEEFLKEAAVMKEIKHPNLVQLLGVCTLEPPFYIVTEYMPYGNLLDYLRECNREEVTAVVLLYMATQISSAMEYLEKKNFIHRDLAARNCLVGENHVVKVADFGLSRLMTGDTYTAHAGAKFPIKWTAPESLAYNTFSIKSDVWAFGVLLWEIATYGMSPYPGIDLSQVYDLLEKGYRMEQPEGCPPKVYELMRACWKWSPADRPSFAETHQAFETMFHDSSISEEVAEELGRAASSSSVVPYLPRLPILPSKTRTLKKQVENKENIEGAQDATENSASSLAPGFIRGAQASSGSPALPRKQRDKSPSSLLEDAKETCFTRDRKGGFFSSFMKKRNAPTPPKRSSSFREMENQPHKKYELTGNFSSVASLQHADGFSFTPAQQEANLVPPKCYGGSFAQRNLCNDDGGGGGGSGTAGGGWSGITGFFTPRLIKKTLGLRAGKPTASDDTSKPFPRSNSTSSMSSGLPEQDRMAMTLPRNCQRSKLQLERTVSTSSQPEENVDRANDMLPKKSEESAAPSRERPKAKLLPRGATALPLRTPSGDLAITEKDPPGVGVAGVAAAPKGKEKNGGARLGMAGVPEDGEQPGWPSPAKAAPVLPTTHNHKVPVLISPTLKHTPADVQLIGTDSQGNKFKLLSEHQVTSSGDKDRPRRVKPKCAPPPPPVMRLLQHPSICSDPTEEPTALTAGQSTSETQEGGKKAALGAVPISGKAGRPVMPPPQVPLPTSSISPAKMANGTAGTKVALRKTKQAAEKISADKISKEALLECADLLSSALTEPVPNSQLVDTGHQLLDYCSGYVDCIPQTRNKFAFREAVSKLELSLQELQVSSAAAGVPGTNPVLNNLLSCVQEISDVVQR
Myosin light chain kinase, smooth muscle (Homo sapiens), sequence (Q15746 whole entry): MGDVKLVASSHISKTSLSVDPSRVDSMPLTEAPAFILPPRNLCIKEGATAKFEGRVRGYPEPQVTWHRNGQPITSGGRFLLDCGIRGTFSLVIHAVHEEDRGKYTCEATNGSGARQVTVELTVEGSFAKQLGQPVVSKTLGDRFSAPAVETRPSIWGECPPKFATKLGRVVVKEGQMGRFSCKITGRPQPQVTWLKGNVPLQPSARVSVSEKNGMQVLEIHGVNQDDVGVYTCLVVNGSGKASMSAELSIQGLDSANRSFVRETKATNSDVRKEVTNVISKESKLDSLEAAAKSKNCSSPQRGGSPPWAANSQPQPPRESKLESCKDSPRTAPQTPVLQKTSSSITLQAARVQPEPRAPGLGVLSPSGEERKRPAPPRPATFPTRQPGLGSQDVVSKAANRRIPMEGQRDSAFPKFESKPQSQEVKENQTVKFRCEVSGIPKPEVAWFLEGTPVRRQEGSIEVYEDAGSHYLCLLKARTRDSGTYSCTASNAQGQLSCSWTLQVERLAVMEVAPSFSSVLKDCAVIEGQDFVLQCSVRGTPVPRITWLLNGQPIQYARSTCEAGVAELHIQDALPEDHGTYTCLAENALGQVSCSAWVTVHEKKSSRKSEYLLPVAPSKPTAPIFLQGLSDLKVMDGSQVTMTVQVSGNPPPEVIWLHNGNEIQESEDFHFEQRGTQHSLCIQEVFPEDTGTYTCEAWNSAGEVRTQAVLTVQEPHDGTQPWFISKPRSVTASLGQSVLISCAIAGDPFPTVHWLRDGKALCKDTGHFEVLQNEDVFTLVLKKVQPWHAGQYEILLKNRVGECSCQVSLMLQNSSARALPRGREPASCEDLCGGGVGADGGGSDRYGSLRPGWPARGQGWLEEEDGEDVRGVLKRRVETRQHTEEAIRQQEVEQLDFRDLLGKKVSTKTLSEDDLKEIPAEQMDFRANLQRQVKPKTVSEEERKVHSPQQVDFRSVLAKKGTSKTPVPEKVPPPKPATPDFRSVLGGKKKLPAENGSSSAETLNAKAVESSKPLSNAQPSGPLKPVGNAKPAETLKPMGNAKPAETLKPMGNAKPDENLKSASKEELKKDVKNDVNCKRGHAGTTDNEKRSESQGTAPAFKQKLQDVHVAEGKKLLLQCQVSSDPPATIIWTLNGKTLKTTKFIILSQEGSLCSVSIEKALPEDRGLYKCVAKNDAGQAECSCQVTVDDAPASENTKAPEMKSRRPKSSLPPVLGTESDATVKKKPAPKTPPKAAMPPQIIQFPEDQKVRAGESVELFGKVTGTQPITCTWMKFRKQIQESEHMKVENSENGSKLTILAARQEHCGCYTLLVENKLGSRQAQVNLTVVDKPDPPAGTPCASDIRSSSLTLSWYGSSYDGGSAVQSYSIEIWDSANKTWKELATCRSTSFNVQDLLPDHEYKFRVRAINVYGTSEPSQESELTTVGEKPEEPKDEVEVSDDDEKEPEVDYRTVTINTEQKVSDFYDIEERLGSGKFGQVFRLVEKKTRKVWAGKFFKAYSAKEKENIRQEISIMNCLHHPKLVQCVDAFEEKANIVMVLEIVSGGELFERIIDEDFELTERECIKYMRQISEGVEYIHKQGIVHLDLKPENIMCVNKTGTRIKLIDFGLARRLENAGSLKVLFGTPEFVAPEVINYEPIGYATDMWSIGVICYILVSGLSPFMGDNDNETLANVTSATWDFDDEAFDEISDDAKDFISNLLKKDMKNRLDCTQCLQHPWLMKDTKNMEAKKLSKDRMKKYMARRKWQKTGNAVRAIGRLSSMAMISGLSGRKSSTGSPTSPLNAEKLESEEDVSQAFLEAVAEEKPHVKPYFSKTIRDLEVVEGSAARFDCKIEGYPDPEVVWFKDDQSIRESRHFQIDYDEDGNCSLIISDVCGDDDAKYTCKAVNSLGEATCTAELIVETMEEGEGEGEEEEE
Receptor-interacting serine/threonine-protein kinase 3 (Homo sapiens), sequence (Q9Y572 whole entry, looked up): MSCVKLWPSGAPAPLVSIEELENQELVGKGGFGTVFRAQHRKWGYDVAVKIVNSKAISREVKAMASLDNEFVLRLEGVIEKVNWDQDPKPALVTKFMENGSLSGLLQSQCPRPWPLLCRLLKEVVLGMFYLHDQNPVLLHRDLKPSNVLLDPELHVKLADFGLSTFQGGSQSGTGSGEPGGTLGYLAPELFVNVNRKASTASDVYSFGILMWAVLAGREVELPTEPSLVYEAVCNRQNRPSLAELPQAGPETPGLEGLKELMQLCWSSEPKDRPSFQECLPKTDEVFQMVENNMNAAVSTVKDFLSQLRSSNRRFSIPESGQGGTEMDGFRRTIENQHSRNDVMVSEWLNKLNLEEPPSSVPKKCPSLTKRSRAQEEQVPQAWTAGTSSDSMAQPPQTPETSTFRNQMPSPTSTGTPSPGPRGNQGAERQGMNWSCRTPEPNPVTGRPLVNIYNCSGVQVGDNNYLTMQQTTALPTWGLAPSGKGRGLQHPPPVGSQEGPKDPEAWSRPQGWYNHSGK
Calcium/calmodulin-dependent protein kinase type II subunit delta (Homo sapiens), sequence (Q13557 whole entry): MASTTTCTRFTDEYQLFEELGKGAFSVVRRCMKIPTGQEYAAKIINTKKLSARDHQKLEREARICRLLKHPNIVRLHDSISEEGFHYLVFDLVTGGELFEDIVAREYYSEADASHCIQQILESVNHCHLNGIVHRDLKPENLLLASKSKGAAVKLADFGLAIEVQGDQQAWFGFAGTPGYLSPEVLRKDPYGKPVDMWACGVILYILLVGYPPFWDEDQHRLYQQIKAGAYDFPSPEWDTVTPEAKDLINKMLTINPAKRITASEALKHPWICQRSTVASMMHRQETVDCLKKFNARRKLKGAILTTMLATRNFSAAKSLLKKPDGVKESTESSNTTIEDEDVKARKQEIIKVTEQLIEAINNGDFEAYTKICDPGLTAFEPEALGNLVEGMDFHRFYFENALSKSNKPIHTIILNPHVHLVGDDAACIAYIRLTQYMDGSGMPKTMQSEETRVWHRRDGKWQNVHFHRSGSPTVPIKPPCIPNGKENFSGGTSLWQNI

For `CC(C)n1cc(-c2cc(-c3ccc(CN4CCOCC4)cc3)cnc2N)nn1`, the inhibition [1] was 34.8%, the inhibition [2] was -0.4% and the inhibition [3] was -7.3%. The inhibition [4] was 23.5%, the inhibition [5] was 6.2% and the inhibition [6] was 1.3%. For the same compound, the inhibition [7] was 29.6% and the inhibition [8] was 7.7%.
